target: T1, K-Ras G12C (Homo sapiens, UniProt P01116, G12C); assay: CAF assay (% CAF; method in Example 7, not in this part); assay type: binding; settings: 10 uM compound, 1 h incubation
T1 construct: This protein contained 188 amino acids in total, including an N-terminal 6-Histidine tag; made in house; host or cells: E. coli BL21

Q: For `C=CC(=O)N1[C@H](C)CN(c2nc(=O)n3c4c(c(-c5cc(Cl)c(F)cc5F)c(C(F)(F)F)cc24)SC[C@@H]3CN(C)C)C[C@@H]1C` [Example 587, (3S)-7-((3S,5R)-4-acryloyl-3,5-dimethylpiperazin-1-yl)-10-(5-chloro-2,4-difluorophenyl)-3-((dimethylamino)methyl)-9-(trifluoromethyl)-2H-[1,4]thiazino[2,3,4-ij]quinazolin-5(3H)-one], which “% CAF @ 10 uM, 1h” value is on record?
A: Its value is 58.9%.

Q: `C=CC(=O)N1C[C@H](C)N(c2nc(=O)n3c4c(c(-c5ccc(F)cc5F)c(C(F)(F)F)cc24)SCC2(COC2)C3)C[C@H]1C` [Example 588, 8′-((2S,5R)-4-Acryloyl-2,5-dimethylpiperazin-1-yl)-11′-(2,4-difluorophenyl)-10′-(trifluoromethyl)-2′H,4′H,6′H-spiro[oxetane-3,3′-[1,4]thiazepino[2,3,4-ij]quinazolin]-6′-one] was tested. Which “% CAF @ 10 uM, 1h” value did it give?
A: Its value is 95.9%.

Q: With `[2H]C1([2H])N(C(=O)C=C)C([2H])([2H])C([2H])([2H])N(c2nc(=O)n3c4c(c(-c5ccc(F)cc5F)c(C(F)(F)F)cc24)SCC2(COC2)C3)C1([2H])[2H]` [Example 589, 8′-(4-Acryloylpiperazin-1-yl-2,2,3,3,5,5,6,6-d8)-11′-(2,4-difluorophenyl)-10′-(trifluoromethyl)-2′H,4′H,6′H-spiro[oxetane-3,3′-[1,4]thiazepino[2,3,4-ij]quinazolin]-6′-one] as the molecule, how does the “% CAF @ 10 uM, 1h” value read?
A: Its value is 92.9%.

target: T2, Cys12 of the KRAS 4B G12C protein (Homo sapiens, UniProt P01116, G12C); assay: In vitro covalent adduct formation (CAF) assay, LC-MS intact mass; assay type: binding; settings: 10 uM compound, 60 min incubation
T2 construct: This protein contained 188 amino acids in total, including an N-terminal 6-Histidine tag; made in house; host or cells: E. coli BL21
Protocol: This Example provides a protocol for assessing covalent adduct formation (CAF) between the compounds of the present application and KRAS.
In vitro covalent adduct formation assay: Covalent adduct formation (CAF) reactions between Cys12 of the KRAS 4B G12C protein and some of the compounds of Tables 1 to 4 were measured in vitro using liquid chromatography-mass spectrometry (LC-MS).
Recombinant Human KRAS 4B protein containing the G12C mutation was used in compound screening experiments. This protein contained 188 amino acids in total, including an N-terminal 6-Histidine tag, followed by a Tobacco Etch Virus (TEV) tag, followed by residues 1-169 of the native KRAS 4B sequence. The exact mass of the protein was 21,310 Da as determined by mass spectrometry. The full amino acid sequence is shown below: […]
The recombinant protein was expressed in E. coli BL21 cells and purified using affinity chromatography via a Ni-NTA column. Protein stocks were nucleotide-exchanged to >95% GDP, concentrated to 4 mg/mL, and stored at −80° C. in storage buffer (50 mM HEPES pH 7.4, 50 mM NaCl, 5 mM MgCl2, 1 mM DTT). Pure KRAS 4B G12C protein was diluted to a concentration of 5 μM in Tris Buffered Saline, pH 7.4. The compounds were dissolved in DMSO and added to the diluted protein to make a 10 μM concentration. The total DMSO concentration in the reaction was 4%. The reaction was mixed by pipetting and incubated at 22° C. for one hour. Aliquots of the reaction were taken over time and diluted 2:1 in 0.1% formic acid. The intact mass of the protein samples was measured by LC-MS using a QExactive+ mass spectrometer (Thermo Scientific). An amount of 500 ng total protein was injected onto a C8 reverse phase column, eluted with a seven-minute gradient of 30%-90% acetonitrile/0.1% formic acid, and analyzed for intact mass by the mass spectrometer. Adducts identified were confirmed to be within 1 Dalton of the expected mass, and the relative ratios of free:adduct protein were used to quantify the percentage of protein bound by the compound. CAF reactions were run in duplicate, with a typical variability of ±5%.

Q: With `C=CC(=O)N1C[C@H](C)N(c2nc(=O)n3c4c(c(-c5cccc6cnn(C)c56)c(C(F)(F)F)cc24)SC[C@@H]3COC)C[C@H]1C` (atropisomer, axis not shown) [Example 1101, (3S,10R)-7-((2S,5R)-4-acryloyl-2,5-dimethylpiperazin-1-yl)-3-(methoxymethyl)-10-(1-methyl-1H-indazol-7-yl)-9-(trifluoromethyl)-2,3-dihydro-5H-[1,4]thiazino[2,3,4-ij]quinazolin-5-one] as the molecule, how does the “% CAF 10 uM @ 60 min” value read?
A: Its value is 0%.

Q: With `C=CC(=O)N1C[C@H](C)N(c2nc(=O)n3c4c(c(-c5cccc6cnn(C)c56)c(C(F)(F)F)cc24)SC[C@@H]3COC)C[C@H]1C` (atropisomer, axis not shown) [Example 1102, (3S,10S)-7-((2S,5R)-4-acryloyl-2,5-dimethylpiperazin-1-yl)-3-(methoxymethyl)-10-(1-methyl-1H-indazol-7-yl)-9-(trifluoromethyl)-2,3-dihydro-5H-[1,4]thiazino[2,3,4-ij]quinazolin-5-one] as the molecule, how does the “% CAF 10 uM @ 60 min” value read?
A: Its value is 94.5%.

Q: For `C=CC(=O)N1CCN(c2nc(=O)n3c4c(c(-c5cc(Cl)c(F)cc5F)c(C(F)(F)F)cc24)SC[C@@H]3COC)CC1` (atropisomer, axis not shown) [Example 1107, (3S,10R)-7-(4-acryloylpiperazin-1-yl)-10-(5-chloro-2,4-difluorophenyl)-3-(methoxymethyl)-9-(trifluoromethyl)-2,3-dihydro-5H-[1,4]thiazino[2,3,4-ij]quinazolin-5-one], which “% CAF 10 uM @ 60 min” value is on record?
A: The value was 97%.

Q: Which “% CAF 10 uM @ 60 min” value does the source give for `C=CC(=O)N1CCN(c2nc(=O)n3c4c(c(-c5cc(Cl)c(F)cc5F)c(C(F)(F)F)cc24)SC[C@@H]3COC)CC1` (atropisomer, axis not shown) [Example 1108, (3S,10S)-7-(4-acryloylpiperazin-1-yl)-10-(5-chloro-2,4-difluorophenyl)-3-(methoxymethyl)-9-(trifluoromethyl)-2,3-dihydro-5H-[1,4]thiazino[2,3,4-ij]quinazolin-5-one] here?
A: Its value is 85%.

Q: With `C=CC(=O)N1C[C@H](C)N(c2nc(=O)n3c4c(c(-c5ccc(F)cc5F)c(C(F)(F)F)cc24)SCC2(COC2)C3)C[C@H]1C` (atropisomer, axis not shown) [Example 1109, (S)-8′-((2S,5R)-4-acryloyl-2,5-dimethylpiperazin-1-yl)-11′-(2,4-difluorophenyl)-10′-(trifluoromethyl)-2′H,4′H,6′H-spiro[oxetane-3,3′-[1,4]thiazepino [2,3,4-ij]quinazolin]-6′-one] as the molecule, how does the “% CAF 10 uM @ 60 min” value read?
A: The value was 93%.

Q: For `C=CC(=O)N1C[C@H](C)N(c2nc(=O)n3c4c(c(-c5ccc(F)cc5F)c(C(F)(F)F)cc24)SCC2(COC2)C3)C[C@H]1C` (atropisomer, axis not shown) [Example 1110, (R)-8′-((2S,5R)-4-acryloyl-2,5-dimethylpiperazin-1-yl)-11′-(2,4-difluorophenyl)-10′-(trifluoromethyl)-2′H,4′H,6′H-spiro[oxetane-3,3′-[1,4]thiazepino [2,3,4-ij]quinazolin]-6′-one], which “% CAF 10 uM @ 60 min” value is on record?
A: The value was 96.1%.

Q: Which “% CAF 10 uM @ 60 min” value does the source give for `C=CC(=O)N1[C@H](C)CN(c2nc(=O)n3c4c(c(-c5cc(Cl)c(F)cc5F)c(C(F)(F)F)cc24)SC[C@H](N2CCOCC2)C3)C[C@@H]1C` (atropisomer, axis not shown) [Example 1114, (3R,11R)-8-((3S,5R)-4-acryloyl-3,5-dimethylpiperazin-1-yl)-11-(5-chloro-2,4-difluorophenyl)-3-morpholino-10-(trifluoromethyl)-3,4-dihydro-2H,6H-[1,4]thiazepino [2,3,4-ij]quinazolin-6-one] here?
A: Its value is 71.7%.

Q: Which “% CAF 10 uM @ 60 min” value does the source give for `C=CC(=O)N1[C@H](C)CN(c2nc(=O)n3c4c(c(-c5cc(Cl)c(F)cc5F)c(C(F)(F)F)cc24)SC[C@H](N2CCOCC2)C3)C[C@@H]1C` (atropisomer, axis not shown) [Example 1115, (3R,11S)-8-((3S,5R)-4-acryloyl-3,5-dimethylpiperazin-1-yl)-11-(5-chloro-2,4-difluorophenyl)-3-morpholino-10-(trifluoromethyl)-3,4-dihydro-2H,6H-[1,4]thiazepino [2,3,4-ij]quinazolin-6-one] here?
A: The value was 42.5%.

Q: Which “% CAF 10 uM @ 60 min” value does the source give for `C=CC(=O)N1CCN(c2nc(=O)n3c4c(c(-c5cccc6cnn(C)c56)c(C(F)(F)F)cc24)SC[C@@H]3COC)CC1` (atropisomer, axis not shown) [Example 1119, (3S,10S)-7-(4-acryloylpiperazin-1-yl)-3-(methoxymethyl)-10-(1-methyl-1H-indazol-7-yl)-9-(trifluoromethyl)-2,3-dihydro-5H-[1,4]thiazino[2,3,4-ij]quinazolin-5-one] here?
A: The value was 99.4%.

Q: `C=CC(=O)N1[C@H](C)CN(c2nc(=O)n3c4c(c(-c5cc(Cl)c(F)cc5F)c(C(F)(F)F)cc24)SCC2(COC2)C3)C[C@@H]1C` (atropisomer, axis not shown) [Example 1124, (R)-8′-((3S,5R)-4-acryloyl-3,5-dimethylpiperazin-1-yl)-11′-(5-chloro-2,4-difluorophenyl)-10′-(trifluoromethyl)-2′H,4′H,6′H-spiro[oxetane-3,3′-[1,4]thiazepino [2,3,4-ij]quinazolin]-6′-one] was tested. Which “% CAF 10 uM @ 60 min” value did it give?
A: The value was 96.2%.

Q: For `C=CC(=O)N1[C@H](C)CN(c2nc(=O)n3c4c(c(-c5cc(Cl)c(F)cc5F)c(C(F)(F)F)cc24)SCC2(COC2)C3)C[C@@H]1C` (atropisomer, axis not shown) [Example 1125, (S)-8′-((3S,5R)-4-acryloyl-3,5-dimethylpiperazin-1-yl)-11′-(5-chloro-2,4-difluorophenyl)-10′-(trifluoromethyl)-2′H,4′H,6′H-spiro[oxetane-3,3′-[1,4]thiazepino [2,3,4-ij]quinazolin]-6′-one], which “% CAF 10 uM @ 60 min” value is on record?
A: The value was 92.1%.

Q: How did the “% CAF 10 uM @ 60 min” value turn out when `C=CC(=O)N1[C@H](C)CN(c2nc(=O)n3c4c(c(-c5ccc(F)c6cnn(C)c56)c(C(F)(F)F)cc24)SC[C@@H]3COC)C[C@@H]1C` (atropisomer, axis not shown) [Example 1126, (3S,10S)-7-((3S,5R)-4-acryloyl-3,5-dimethylpiperazin-1-yl)-10-(4-fluoro-1-methyl-1H-indazol-7-yl)-3-(methoxymethyl)-9-(trifluoromethyl)-2,3-dihydro-5H-[1,4]thiazino [2,3,4-ij]quinazolin-5-one] was run?
A: The value was 46.8%.

Q: Which “% CAF 10 uM @ 60 min” value does the source give for `C=CC(=O)N1CCN(c2nc(=O)n3c4c(c(-c5ccc(F)cc5F)c(C(F)(F)F)cc24)SCC2(COC2)C3)CC1` (atropisomer, axis not shown) [Example 1127, (R)-8′-(4-acryloylpiperazin-1-yl)-11′-(2,4-difluorophenyl)-10′-(trifluoromethyl)-2′H,4′H,6′H-spiro[oxetane-3,3′-[1,4]thiazepino [2,3,4-ij]quinazolin]-6′-one] here?
A: The value was 95.3%.

Q: For `C=CC(=O)N1CCN(c2nc(=O)n3c4c(c(-c5ccc(F)cc5F)c(C(F)(F)F)cc24)SCC2(COC2)C3)CC1` (atropisomer, axis not shown) [Example 1128, (S)-8′-(4-acryloylpiperazin-1-yl)-11′-(2,4-difluorophenyl)-10′-(trifluoromethyl)-2′H,4′H,6′H-spiro[oxetane-3,3′-[1,4]thiazepino [2,3,4-ij]quinazolin]-6′-one], which “% CAF 10 uM @ 60 min” value is on record?
A: The value was 65.8%.
